“And” between values parts separate entries of the source, which are not always exact repeats. Equal entries are not always repeated.
What was measured:
[1] = 3T3 Neutral Red uptake cytotoxicity and phototoxicity assay; conditions: mouse, Balb/c 3T3 fibroblasts (clone 31); for viability: Viability of cells over all tested concentrations, .316 to 1000 μg/mL
Method: (§1) The 3T3 Neutral Red uptake assay was used to evaluate the phototoxicity of BondLynx. The NRU assay makes use of Neutral Red dye, a weak cationic dye that penetrates the cell membrane by non-ionic passive diffusion and accumulates in lysosomes. Cytotoxicity of the test material is evaluated by measuring the OD540 to assess the uptake of Neutral Red dye.[28],[29] […] By measuring cytotoxicity in the absence vs presence of UV and visible light, the phototoxicity of the test material can be determined.[30],[31]
(§2) Cells were routinely trypsinized and passaged, at least once weekly, with a split ratio 1:3 to 1:4 to achieve a near confluent culture.
(§3) Stock solutions of both controls were freshly prepared on the day of testing. The vehicle control was 1% DMSO in EBSS for the positive control, EBSS for the negative control, and .5% ethanol in EBSS for BondLynx. BondLynx was dissolved in ethanol for testing. […] All controls and BondLynx were handled in the dark and tested in 8-fold.
(§4) In preparation for testing, cultures of 3T3 fibroblasts were trypsinized and resuspended in culture medium. […] A total of six plates were prepared in this manner – two each for the positive control, the negative control, and BondLynx. Following incubation, the cell culture medium was removed, and the wells washed with DPBS (Dulbecco’s phosphate-buffered saline). A 200 μL aliquot of each dilution of the test compound (BondLynx or a control) was added the first eight columns, and the appropriate vehicle control was added to the last four columns. All plates were incubated an additional 60 min before irradiating one plate for each test compound (+Irr) in a solar simulator with a WG320 nm filter for 22 min (equivalent to 5 J/cm^2 UV-A), while the second plate for each test compound (–Irr) was kept in the dark at room temperature. Subsequently, the test solutions were removed from the plates, and the cells were washed once with DPBS and suspended in 200 μL of supplemented DMEM to incubate for an additional 20-24 h.
(§5) Immediately following incubation, the confluency of each plate was visually assessed, and the culture medium was replaced with 100 μL of Neutral Red dye (50 μg/mL). The plates were incubated another 3.5 h before removing the dye, washing with 150 μL of DPBS, and shaking for 20-40 min in 150 μL Neutral Red destain solution (ethanol:acetic acid:distilled water, 50:1:49). The optical density at 540 nm was measured for each well and corrected by subtracting the appropriate blank.

[2] = test system: Balb/c 3T3 fibroblasts (clone 31); experiment: as above; conditions: for Corrected Mean OD540: 8 wells
Method: as §1, §2, §3, §4, §5

[3] = In vitro skin corrosion test, MTT viability; conditions: human, EpiDerm Skin Model (reconstructed human epidermis)
Method: (§6) The skin corrosion test was performed to assess the cytotoxic effects of BondLynx immediately following short-term exposure to the stratum corneum of the epidermis using an in vitro skin model.[32]–[34] Cytotoxicity to the skin model was expressed as the reduction of mitochondrial dehydrogenase activity measured by formazan production from 3-(4,5-dimethylthiazol-2-yl)-2,5-diphenyl tetrazolium bromide (MTT). […] BondLynx was checked for direct MTT reduction by incubating at least 50 mg of BondLynx with 1 mL MTT for 3 h to ensure that no blue/purple colour change or precipitate occurred. BondLynx was tested for colour interference by incubating at least 50 mg of BondLynx in water for 1 h and isopropanol for 2-3 h, centrifuging for 30 s at 16,000 g, and measuring the OD570 to ensure an optical density ≤.08 (after subtracting a Milli-Q water blank).
(§7) Incubations were performed at 37.0-37.3°C, in an atmosphere with 77%-95% humidity containing 5.0 ± .5% CO2 in air unless otherwise stated. The positive control was 8.0 N aqueous potassium hydroxide (KOH) solution, and the negative control was Milli-Q water. BondLynx was applied directly to the test system as a solid and spread to match the size of the tissue. Tests were performed in duplicate.
(§8) Skin tissue samples were refrigerated for 1 day upon receipt before placing in a six-well plate with .9 mL supplemented DMEM (just enough to reach the bottom of the tissue) 1 h before testing. A total of four samples were prepared per test item by applying 50 μL of the positive or negative control, or 25 μL of Milli-Q water (to moisten the tissue and ensure close contact) followed by 34.2-39.8 mg of BondLynx. Two samples of each test item were incubated for 3 min at room temperature, while the remaining samples were incubated for 1 h. After exposure, tissues were washed with phosphate buffered saline, dried carefully, and stored in 300 μL DMEM in a 24 well plate until the full six-well plate was dosed and rinsed.
(§9) Cell viability after incubation was determined by replacing the DMEM with 300 μL MTT in supplemented DMEM (1 mg/mL) and incubating for 3 h. Tissues were then washed with phosphate buffer saline, and formazan was extracted with 2 mL isopropanol overnight. The amount of extracted formazan was measured in triplicate for each sample by the OD570.
(§10) Optical density readings were corrected by subtracting the mean blank OD570. Cell viability was calculated as the percentage of the mean corrected OD570 for the test compound relative to the mean OD570 for the negative control (% Viability = ODtest/ODnegative control × 100%).

[4] = test system: EpiDerm Skin Model (human-derived epidermal keratinocytes); experiment: In vitro skin corrosion test, MTT viability; conditions: for OD570 / OD570 corrected: tissues A and B, triplicate readings
Method: as §6, §7, §8, §9, §10

Compound: FC(F)(F)C1(c2ccc(C(c3ccc(C4(C(F)(F)F)N=N4)cc3)(C(F)(F)F)C(F)(F)F)cc2)N=N1 [BondLynx, 2,2-bis-[4-[3-(trifluoromethyl)-3H-diazirin-3-yl]phenyl]hexafluoropropane]
- viability at 82 min, 0.316 μg/mL ([1]; Viability (%), +Irr): 101%
- viability at 82 min, 1 μg/mL ([1]; Viability (%), +Irr): 99.6%
- viability at 82 min, 3.16 μg/mL ([1]; Viability (%), +Irr): 101%
- viability at 82 min, 10 μg/mL ([1]; Viability (%), +Irr): 103%
- viability at 82 min, 31.6 μg/mL ([1]; Viability (%), +Irr): 106%
- viability at 100 μg/mL ([1]; Viability (%), +Irr, 100 μg/mL): 110%
- viability at 82 min, 316 μg/mL ([1]; Viability (%), +Irr): 111%
- viability at 82 min, 1000 μg/mL ([1]; Viability (%), +Irr): 105%
- viability at 82 min, 0.316 μg/mL ([1]; Viability (%), –Irr): 102%
- viability at 82 min, 1 μg/mL ([1]; Viability (%), –Irr): 101%
- viability at 82 min, 3.16 μg/mL ([1]; Viability (%), –Irr): 100%
- viability at 82 min, 10 μg/mL ([1]; Viability (%), –Irr): 97.4%
- viability at 82 min, 31.6 μg/mL ([1]; Viability (%), –Irr): 98.3%
- viability at 82 min, 100 μg/mL ([1]; Viability (%), –Irr, 100 μg/mL): 100%
- viability at 82 min, 316 μg/mL ([1]; Viability (%), –Irr): 101%
- viability at 82 min, 1000 μg/mL ([1]; Viability (%), –Irr): 93%
- viability ([1]; Irr+): 105 ± 4%
- viability ([1]; Irr−): 99 ± 3%
- Phototoxicity classification ([2]; 3T3 NRU phototoxicity test): non-phototoxic
- Corrected Mean OD540 ([2]; +Irr, 0.316 μg/mL): 1.135
- Corrected Mean OD540 ([2]; +Irr, 1 μg/mL): 1.116
- Corrected Mean OD540 ([2]; +Irr, 3.16 μg/mL): 1.13
- Corrected Mean OD540 ([2]; +Irr, 10 μg/mL): 1.149
- Corrected Mean OD540 ([2]; +Irr, 31.6 μg/mL): 1.19
- Corrected Mean OD540 ([2]; +Irr, 100 μg/mL): 1.236
- Corrected Mean OD540 ([2]; +Irr, 316 μg/mL): 1.24
- Corrected Mean OD540 ([2]; +Irr, 1000 μg/mL): 1.18
- IC50 (50% inhibition of Neutral Red uptake), presence of irradiation ([2]; +Irr, 5 J/cm^2 UV-A): no IC50
- Photo Irritation Factor (PIF) ([2]; non-irradiated IC50 divided by irradiated IC50): no PIF could be calculated
- Cytotoxicity ([2]; presence and absence of UV-A, .316 to 1000 μg/mL): no cytotoxicity
- IC50 (50% inhibition of Neutral Red uptake), absence of irradiation ([2]; –Irr): no IC50
- Corrected Mean OD540 ([2]; –Irr, 0.316 μg/mL): 1.17
- Corrected Mean OD540 ([2]; –Irr, 1 μg/mL): 1.16
- Corrected Mean OD540 ([2]; –Irr, 3.16 μg/mL): 1.15
- Corrected Mean OD540 ([2]; –Irr, 10 μg/mL): 1.12
- Corrected Mean OD540 ([2]; –Irr, 31.6 μg/mL): 1.13
- Corrected Mean OD540 ([2]; –Irr, 100 μg/mL): 1.15
- Corrected Mean OD540 ([2]; –Irr, 316 μg/mL): 1.16
- Corrected Mean OD540 ([2]; –Irr, 1000 μg/mL): 1.07
- viability at 3 min [3]: 101%
- viability at 1 h [3]: 95%
- Mean ± SD (OD570 corrected) ([4]; 3 min exposure): 1.7 ± 0.1
- OD570 ([4]; 3 min exposure): 1.8819 and 1.869 and 1.8445 and 1.7365 and 1.7069 and 1.7026
- OD570 corrected ([4]; 3 min exposure): 1.837 and 1.8241 and 1.7996 and 1.6916 and 1.662 and 1.6577
- Mean ± SD (OD570 corrected) ([4]; 1 h exposure): 1.85 ± .09
- OD570 ([4]; 1 h exposure): 1.9919 and 1.9396 and 1.9528 and 1.8727 and 1.8128 and 1.8033
- OD570 corrected ([4]; 1 h exposure): 1.947 and 1.8947 and 1.9079 and 1.8278 and 1.7679 and 1.7584
- Skin corrosion classification ([4]; viability >50% after 3 min and >15% after 1 h): not corrosive

From publication PMC10916352, “Safety Evaluation of a Prototypical Diazirine-Based Covalent Crosslinker and Molecular Adhesive” (International Journal of Toxicology, 2023)
